Measured values as given in PubChem BioAssay (NCI).
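Where inhibition never reached the appropriate level, the endpoint shown equals the highest concentration tested. Otherwise, values were interpolated linearly from a five-concentration, 48-hour dose response in 96-well plates. GI50 marks 50% less growth. Definition used: TGI = concentration required for complete inhibition of growth.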

Experiments:
Test in all cases: inhibition of tumour cell growth, NCI panel, 48 h
[1] = tested on: SK-MEL-28 melanoma
[2] = tested on: MOLT-4 leukemia
[3] = tested on: MALME-3M melanoma
[4] = tested on: BT-549 breast
[5] = tested on: OVCAR-5 ovarian
[6] = tested on: SR leukemia
[7] = tested on: NCI-H226 lung
[8] = tested on: KM12 colon
[9] = tested on: SF-268 CNS
[10] = tested on: RPMI-8226 leukemia
[11] = tested on: HOP-62 NSCLC
[12] = tested on: SK-MEL-2 melanoma
[13] = tested on: SK-MEL-5 melanoma
[14] = tested on: OVCAR-8 ovarian
[15] = tested on: PC-3 prostate
[16] = tested on: HT29 colon
[17] = tested on: UACC-62 melanoma
[18] = tested on: HL-60(TB) leukemia
[19] = tested on: NCI-H460 lung
[20] = tested on: NCI/ADR-RES ovarian
[21] = tested on: SN12C renal
[22] = tested on: MCF7 breast
[23] = tested on: MDA-MB-435
[24] = tested on: HOP-92 NSCLC
[25] = tested on: SNB-75 CNS
[26] = tested on: HCC-2998 colon
[27] = tested on: OVCAR-3 ovarian
[28] = tested on: SK-OV-3 ovarian
[29] = tested on: OVCAR-4 ovarian
[30] = tested on: NCI-H23 lung
[31] = tested on: ACHN renal
[32] = tested on: NCI-H522 lung
[33] = tested on: 786-0 renal
[34] = tested on: SF-295 CNS
[35] = tested on: HCT-116 colon
[36] = tested on: DU-145 prostate
[37] = tested on: TK-10 renal
[38] = tested on: EKVX NSCLC
[39] = tested on: IGROV1 ovarian
[40] = tested on: CCRF-CEM leukemia
[41] = tested on: SF-539 CNS
[42] = tested on: A549 NSCLC
[43] = tested on: MDA-MB-231 breast
[44] = tested on: A498 renal
[45] = tested on: RXF 393 renal
[46] = tested on: COLO 205 colon
[47] = tested on: HS 578T breast
[48] = tested on: SW-620 colon
[49] = tested on: UACC-257 melanoma
[50] = tested on: HCT-15 colon
[51] = tested on: SNB-19 CNS
[52] = tested on: LOX IMVI melanoma
[53] = tested on: CAKI-1 renal
[54] = tested on: UO-31 renal
[55] = tested on: T-47D breast
[56] = tested on: U251 CNS
[57] = tested on: K-562 leukemia
[58] = tested on: M14 melanoma

In the case of CS(=O)(=O)c1ccc2c(c1)c1c(n2C(=O)c2ccc(Cl)cc2)CCCC1, the GI50 [1] is reported as 2.97 µM, the TGI [1] is reported as > 100 µM and the GI50 [2] is reported as 2.86 µM. For the same molecule, the TGI [2] was > 100 µM, the GI50 [3] was 7.23 µM and the TGI [3] was > 100 µM. The GI50 [4] was 1.64 µM, the TGI [4] was > 100 µM and the GI50 [5] was 19.8 µM. The TGI [5] was > 100 µM, the GI50 [6] was 1.1 µM and the TGI [6] was > 100 µM. For the same molecule, the GI50 [7] was 4.62 µM, the TGI [7] was > 100 µM and the GI50 [8] was 1.59 µM. The TGI [8] was > 100 µM, the GI50 [9] was 21.5 µM and the TGI [9] was > 100 µM. The GI50 [10] was 4.6 µM, the TGI [10] was > 100 µM and the GI50 [11] was 4.48 µM. For the same molecule, the TGI [11] was > 100 µM, the GI50 [12] was 1.15 µM and the TGI [12] was > 100 µM. The GI50 [13] was 2.45 µM, the TGI [13] was > 100 µM and the GI50 [14] was 6.49 µM. For the same molecule, the TGI [14] was > 100 µM, the GI50 [15] was 4.75 µM and the TGI [15] was > 100 µM. The GI50 [16] was 4.34 µM, the TGI [16] was 67.4 µM and the GI50 [17] was 1.27 µM. The TGI [17] was > 100 µM, the GI50 [18] was 1.13 µM and the GI50 [19] was 1.5 µM. For the same molecule, the TGI [19] was > 100 µM, the GI50 [20] was 1.4 µM and the TGI [20] was > 100 µM. For the same molecule, the GI50 [21] was 3.43 µM, the TGI [21] was > 100 µM and the GI50 [22] was 1.08 µM. For the same molecule, the TGI [22] was > 100 µM, the GI50 [23] was 0.614 µM and the TGI [23] was 1.51 µM. For the same molecule, the GI50 [24] was 2.63 µM, the TGI [24] was > 100 µM and the GI50 [25] was 5.05 µM. The TGI [25] was 64.9 µM, the GI50 [26] was 16.8 µM and the TGI [26] was > 100 µM. It also gave a GI50 [27] of 5.01 µM, a TGI [27] of 46.3 µM and a GI50 [28] of 22.1 µM. The TGI [28] was > 100 µM, the GI50 [29] was 21.1 µM and the TGI [29] was > 100 µM. The GI50 [30] was 28.2 µM, the TGI [30] was > 100 µM and the GI50 [31] was 5.1 µM. The TGI [31] was > 100 µM, the GI50 [32] was 0.717 µM and the TGI [32] was 2.57 µM. The GI50 [33] was 3.4 µM, the TGI [33] was > 100 µM and the GI50 [34] was 1.96 µM. The TGI [34] was > 100 µM, the GI50 [35] was 1.27 µM and the TGI [35] was > 100 µM. For the same molecule, the GI50 [36] was 7.52 µM, the TGI [36] was > 100 µM and the GI50 [37] was > 100 µM. For the same molecule, the TGI [37] was > 100 µM, the GI50 [38] was 14 µM and the TGI [38] was > 100 µM. For the same molecule, the GI50 [39] was 3.34 µM, the TGI [39] was > 100 µM and the GI50 [40] was 2.05 µM. For the same molecule, the TGI [40] was > 100 µM, the GI50 [41] was 6.31 µM and the TGI [41] was 35 µM. The GI50 [42] was 13.5 µM, the TGI [42] was > 100 µM and the GI50 [43] was 6.83 µM. The TGI [43] was > 100 µM, the GI50 [44] was > 100 µM and the TGI [44] was > 100 µM. It also gave a GI50 [45] of 4.23 µM, a TGI [45] of 40.7 µM and a GI50 [46] of 18.9 µM. The TGI [46] was > 100 µM, the GI50 [47] was 1.41 µM and the TGI [47] was > 100 µM. For the same molecule, the GI50 [48] was 1.61 µM, the TGI [48] was > 100 µM and the GI50 [49] was > 100 µM. For the same molecule, the TGI [49] was > 100 µM, the GI50 [50] was 1.32 µM and the TGI [50] was > 100 µM. For the same molecule, the GI50 [51] was 4.16 µM, the TGI [51] was > 100 µM and the GI50 [52] was 2.43 µM. For the same molecule, the TGI [52] was > 100 µM, the GI50 [53] was 2.19 µM and the TGI [53] was > 100 µM. For the same molecule, the GI50 [54] was 3.22 µM, the TGI [54] was > 100 µM and the GI50 [55] was 2.54 µM. The TGI [55] was > 100 µM, the GI50 [56] was 3.41 µM and the TGI [56] was > 100 µM. The GI50 [57] was 1.31 µM, the TGI [57] was > 100 µM and the GI50 [58] was 1.56 µM. For the same molecule, the TGI [58] was > 100 µM.
